Measurements published in patent publication US5698580A, “Antiviral agent containing benzodithiin derivative as active ingredient” (Rational Drug Design Laboratories, priority 1994, dated 1997).
In brackets after ≈: the same amount, converted by molar mass.

Columns and labels:
RS virus [1] = test: Suppression of RS virus assayed by the MTT method (Experimental Example 1); type: cell-based, RS virus Long strain; details: for EC50: 120 h, concentration inhibiting HeLa cell destruction by RS virus infection by 50%, 35° C., 5 days, MTT; for S.I. (selectivity index, CC50/EC50): ratio of CC50 to EC50, MTT method
Method: (§1) After the completion of the centrifugation, the media were incubated in a CO2 gas incubator at 35° C. for 5 days. The MTT [3-(4,5-dimethylthiazol-2-yl)-2,5-diphenyltetrazolium bromide] solution was added to the media at 4 hours before the completion of the incubation, and the proportion of viable cells was colorimetrically determined on a microplate reader. The concentration of the compound at which cell destruction by RS virus infection was inhibited by 50% is shown as antiviral activity (EC50). In addition, 50% cytotoxicity value (CC50) of the compound was calculated from the tests run concurrently without inoculation of RS virus. The ratio of CC50 to EC50 was determined as S.I. (selectivity index, CC50 /EC50).

in vitro [2] = type: cell-based; details: human, hela cells
Method: as §1, with “Maintenance media (Eagle's MEM media supplemented with 2% bovine serum albumin) containing compounds 1-13 or Ribavirin (control drug) at various concentrations, a HeLa cell suspension prepared in advance by digestion with trypsin, and maintenance media containing RS virus Long strain were plated in 96 well round-bottom microplates, and centrifuged at a low speed (700×g) for 5 minutes at room temperature. After” for “After”

RS virus [3] = test: Suppression of RS virus assayed by plaque reduction method (Experimental Example 2); type: cell-based, RS virus Long strain; details: for EC50: 96 h, concentration decreasing number of plaques by 50%, HeLa cells, 35° C., 4 days; for S.I. (selectivity index, CC50/EC50): ratio of CC50 to EC50, plaque reduction method
Method: (§2) The confluently grown HeLa cells in 24 well flat-bottom multitrays were inoculated with RS virus Long strain prepared in a maintenance medium (Eagle's MEM medium supplemented with 2% bovine serum albumin), and the cells were incubated in a CO2 gas incubator at 35° C. for one hour. Culture solution was discarded and the cells were washed with a maintenance medium. Then, maintenance media (supplemented with 0.6% methylcellulose) containing Compound 1 or Ribavirin (control drug) at various concentrations were added, and the media were incubated in a CO2 gas incubator at 35° C. for 4 days. After the completion of the incubation, the cells were fixed with a 5% aqueous formalin solution for 6 hours and washed with tap water. Then, the cells were stained with a 0.025% aqueous crystal violet solution. The infected cell plaques which were not stained with crystal violet were microscopically counted. The plaques formed using the compound at various concentrations and those of control group without the compound were counted, and the concentration of the compound at which the number of plaques was decreased by 50% is shown as an antiviral activity (EC50). In addition, 50% cytotoxicity (CC50) of the compound was calculated by the MTT method. The ratio of CC50 to EC50 was determined as S.I. (selectivity index, CC50 /EC50).

in vitro [4] = type: cell-based; details: human, hela cells; remark: listed apart in the source
Method: as §2

[5] = background art; cited from earlier work
RS virus [6] = details: background art; cited from earlier work

Structure (SMILES) | EC50 (RS virus [1]) [µg/mL] | S.I. (selectivity index, CC50/EC50) (RS virus [1]) | CC50 at 120 h (in vitro [2]) [µg/mL] | EC50 (RS virus [3]) [µg/mL] | S.I. (selectivity index, CC50/EC50) (RS virus [3]) | CC50 (in vitro [4]) [µg/mL] | teratogenicity, carcinogenicity and mutagenicity [5] | toxicity [5] | effect against RS virus (RS virus [6])
c1ccc2c(c1)CSSC2 [Compound 1, 1,4-dihydro-2,3-benzodithiin] | 0.3 (≈ 1.78 µM) | 143.3 | 43 (≈ 256 µM) | 1.7 (≈ 10.1 µM) | 26.29 | 44.7 (≈ 266 µM) | – | – | –
O=[N+]([O-])c1ccc2c(c1)CSSC2 [Compound 2, 1,4-dihydro-6-nitro-2,3-benzodithiin] | 1.9 (≈ 8.91 µM) | 4.7 | 8.9 (≈ 41.7 µM) | – | – | – | – | – | –
COC(=O)c1ccc2c(c1)CSSC2 [Compound 4, methyl 1,4-dihydro-2,3-benzodithiin-6-carboxylate] | 1.8 (≈ 7.95 µM) | 5.4 | 9.7 (≈ 42.9 µM) | – | – | – | – | – | –
c1ccc(COc2ccc3c(c2)CSSC3)cc1 [Compound 7, 6-benzyloxy-1,4-dihydro-2,3-benzodithiin] | > 9.6 | – | 9.6 (≈ 35 µM) | – | – | – | – | – | –
Fc1cccc2c1CSSC2 [Compound 10, 1,4-dihydro-5-fluoro-2,3-benzodithiin] | 1.1 (≈ 5.91 µM) | > 90.9 | > 100 | – | – | – | – | – | –
NC(=O)c1ncn([C@@H]2O[C@H](CO)[C@@H](O)[C@H]2O)n1 [Ribavirin, reference compound] | 7.6 (≈ 31.1 µM) | 13.2 | > 100 | 3.7 (≈ 15.2 µM) | 27.03 | > 100 | teratogenic, carcinogenic and mutagenic | high toxicity | effective against RS virus

Now from value to compound, other results behind:

EC50 (RS virus [1]) [µg/mL] | Structure (SMILES) | S.I. (selectivity index, CC50/EC50) (RS virus [1]) | CC50 at 120 h (in vitro [2]) [µg/mL] | EC50 (RS virus [3]) [µg/mL] | S.I. (selectivity index, CC50/EC50) (RS virus [3]) | CC50 (in vitro [4]) [µg/mL] | teratogenicity, carcinogenicity and mutagenicity [5] | toxicity [5] | effect against RS virus (RS virus [6])
3 (≈ 16.4 µM) | Nc1ccc2c(c1)CSSC2 [Compound 3, 6-amino-1,4-dihydro-2,3-benzodithiin] | 1.7 | 5.1 (≈ 27.8 µM) | – | – | – | – | – | –
11.8 (≈ 55.6 µM) | O=C(O)c1ccc2c(c1)CSSC2 [Compound 5, 1,4-dihydro-2,3-benzodithiin-6-carboxylic acid] | 4.0 | 47.2 (≈ 222 µM) | – | – | – | – | – | –
0.2 (≈ 1.1 µM) | Cc1ccc2c(c1)CSSC2 [Compound 6, 1,4-dihydro-6-methyl-2,3-benzodithiin] | 224 | 44.7 (≈ 245 µM) | – | – | – | – | – | –
1.6 (≈ 8.07 µM) | COc1ccc2c(c1)CSSC2 [Compound 8, 1,4-dihydro-6-methoxy-2,3-benzodithiin] | 8.0 | 12.8 (≈ 64.5 µM) | – | – | – | – | – | –
0.8 (≈ 4.29 µM) | Fc1ccc2c(c1)CSSC2 [Compound 9, 1,4-dihydro-6-fluoro-2,3-benzodithiin] | 72.1 | 57.7 (≈ 310 µM) | – | – | – | – | – | –
1.7 (≈ 8.39 µM) | Clc1ccc2c(c1)CSSC2 [Compound 11, 6-chloro-1,4-dihydro-2,3-benzodithiin] | 9.9 | 16.8 (≈ 82.9 µM) | – | – | – | – | – | –
2.3 (≈ 10.9 µM) | CN(C)c1ccc2c(c1)CSSC2 [Compound 12, 1,4-dihydro-6-N,N-dimethylamino-2,3-benzodithiin] | 14.5 | 33.3 (≈ 158 µM) | – | – | – | – | – | –
6.5 (≈ 29 µM) | CC(C)(C)c1ccc2c(c1)CSSC2 [Compound 13, 6-tert-butyl-1,4-dihydro-2,3-benzodithiin] | 2.3 | 15.2 (≈ 67.7 µM) | – | – | – | – | – | –
